We go through four compounds from the supplement of paper PMC11061612.

Common to all, as to assay: Bliss excess, mean over the matrix (fraction); higher = more synergy
The subject of test [1] is CGTH-W-1 (Thyroid Gland Carcinoma). In short, it runs like this: (§1)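 Cell lines in DMEM/F12 or RPMI with 10% FBS were plated in 1536-well plates, held 24 hours at 37°C, 5% CO2, then given two-drug dose matrices for 72 hours (DMSO typically 0.2%). Viability was read by CellTiter-Glo 2.0 luminescence and scaled as inhibition from 0 (vehicle wells) to 1 (blank wells). Combination Emax is the second-highest inhibition in the matrix; Bliss excess is observed combination effect minus expected EA + EB − EA·EB, EA and EB being single-agent effects.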

A further test has as its system EW-16 (Ewing's Sarcoma). In short, it runs like this: as §1
The subject of test [2] is CAL-27 (Oral Cavity Carcinoma). Summed up:
as §1

In test [3] the test system is CA46 (Burkitt's Lymphoma). In short, it runs like this:
as §1

Test [4] deals with GCT (Other Solid Carcinomas). In short, it runs like this: as §1
Test [5] concerns NCI-H441 (Lung Adenocarcinoma). In short, it runs like this: as §1
Test [6] concerns HCC1428 (Breast Carcinoma). Summed up:
as §1

Test [7] deals with MDA-MB-436 (Breast Carcinoma). In short, it runs like this:
as §1

The subject of test [8] is A253 (Head and Neck Carcinoma). In short, it runs like this:
as §1

Test [9] has as its system A2780 (Ovarian Carcinoma). In short, it runs like this:
as §1

Test [10] deals with huH-1 (Hepatocellular Carcinoma). Summed up:
as §1

Test [11] relates to NCI-H1651 (Lung Adenocarcinoma). Summed up:
as §1

The test system of test [12] is LS-411N (Colorectal Carcinoma). In short, it runs like this: as §1
The test system of a further test is 769-P (Kidney Carcinoma). Summed up: as §1
The subject of test [13] is Jurkat (T-Lymphoblastic Leukemia). Summed up:
as §1

Test [14] has as its system EPLC-272H (Other Solid Carcinomas). Summed up: as §1
The test system of test [15] is DMS-53 (Small Cell Lung Carcinoma). In short, it runs like this: as §1
The subject of a further test is RH-41 (Rhabdomyosarcoma). Summed up:
as §1

Test [16] has as its system JIMT-1 (Breast Carcinoma). Summed up: as §1
In another test the test system is AU565 (Breast Carcinoma). Summed up: as §1

Regarding `NC1(C(=O)N[C@@H](CCO)c2ccc(Cl)cc2)CCN(c2ncnc3[nH]ccc23)CC1` [Capivasertib] + Cn1cnc2c(F)c(Nc3ccc(Br)cc3Cl)c(C(=O)NOCCO)cc21 [Selumetinib] (first compound max 10 µM, 7x7, partner max 10 µM), the Bliss excess in [1] is 0.0262; with EW-16 (Ewing's Sarcoma), 0.0097; in test [2] it was 0.0108; in [3], 0.0039; in test [4] it was -0.0354; in [5] it was -0.0041. In addition, the Bliss excess is 0.0149 in test [6]; 0.0258 in [7]; 0.0591 in test [8]; 0.0151 in test [9]; -0.0199 in test [10]; -0.0156 in [11]. The Bliss excess was found to be 0.0005 in test [12]; 0.0062 in the test with 769-P (Kidney Carcinoma); 0.009 in [13]; 0.128 in test [14]; 0.0155 in [15]; 0.0251 in the test with RH-41 (Rhabdomyosarcoma). The Bliss excess in [16] came out at 0.0449; with AU565 (Breast Carcinoma), 0.0183.

With `CN(C)CCCOc1ccc(-c2ccc3ncc4c(c3c2)n(C2CCOCC2)c(=O)n4C)cn1` [AZD0156] + O=C(c1cc(Cc2n[nH]c(=O)c3ccccc23)ccc1F)N1CCN(C(=O)C2CC2)CC1 [Olaparib] (first compound max 3 µM, partner max 3 µM), the Bliss excess in test [1] is 0.0361; in the test with EW-16 (Ewing's Sarcoma) it was 0.0975; in test [2], 0.0602; in test [3] it was 0.0156; in [4], 0.0068; in test [5] it was -0.0003. Besides, the Bliss excess in [6] was 0.0051; in test [7], -0.0232; in test [8], 0.0536; in test [9], 0.198; in [10] it was -0.0726; in test [11] it was 0.132. The Bliss excess in test [12] is 0.0922; in the test on 769-P (Kidney Carcinoma) it was -0.0148; in [13] it was 0.174; in test [14], -0.0122; in [15], -0.0283; in the test with RH-41 (Rhabdomyosarcoma), 0.0128. In addition, the Bliss excess in test [16] was -0.0233; in the test on AU565 (Breast Carcinoma), 0.0442.

Turning to `Cc1c2c(nn1C)CSCc1cc(n(C)n1)CSc1cc(c3ccccc3c1)OCCCc1c(C(=O)O)n(C)c3c-2c(Cl)ccc13` [AZD5991] + CC1(C)CCC(CN2CCN(c3ccc(C(=O)NS(=O)(=O)c4ccc(NCC5CCOCC5)c([N+](=O)[O-])c4)c(Oc4cnc5[nH]ccc5c4)c3)CC2)=C(c2ccc(Cl)cc2)C1 [Venetoclax] (first compound max 1 µM, 7x7, partner max 1 µM), the Bliss excess is -0.012 in [1]; -0.0326 in the test with EW-16 (Ewing's Sarcoma); -0.0081 in test [2]; -0.02 in test [3]; -0.0272 in test [4]; -0.0189 in test [5]. The Bliss excess in test [6] is 0.0221; in test [7] it was -0.0513; in test [8] it was 0.0088; in test [9], 0.0777; in [10], -0.0534; in test [11], -0.0327. For the same compound, the Bliss excess was 0 in [12]; -0.0328 with 769-P (Kidney Carcinoma); 0.0116 in test [13]; -0.015 in [14]; 0.159 in test [15]; 0.0582 in the test with RH-41 (Rhabdomyosarcoma). For the same compound, the Bliss excess in [16] was -0.0155; in the test with AU565 (Breast Carcinoma) it was 0.0115.

`CC(=O)c1c(C)c2cnc(Nc3ccc(N4CCNCC4)cn3)nc2n(C2CCCC2)c1=O` [Palbociclib] + Cn1cnc2c(F)c(Nc3ccc(Br)cc3Cl)c(C(=O)NOCCO)cc21 [Selumetinib] (first compound max 10 µM, 7x7, partner max 10 µM): the Bliss excess in [1] was -0.036; in the test with EW-16 (Ewing's Sarcoma), -0.0095; in [2], -0.0132; in [3] it was -0.0504; in test [4] it was -0.0369; in test [5] it was 0.0506. Further, the Bliss excess in [6] was -0.0235; in [7] it was 0.0157; in test [8] it was -0.0864; in test [9], 0.0327; in test [10], -0.0455; in test [11], -0.0391. The Bliss excess in test [12] was 0.0131; with 769-P (Kidney Carcinoma), 0.039; in [13], -0.0297; in [14], 0.024; in test [15] it was -0.0207; with RH-41 (Rhabdomyosarcoma), -0.0076. Further, the Bliss excess was -0.0436 in test [16] and 0.0052 in the test with AU565 (Breast Carcinoma).
